Laboratory results: PubChem BioAssay (NCI)
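Cells were grown in 96-well plates and exposed to each compound for 48 hours at five concentrations; endpoints were interpolated linearly between bracketing concentrations, or set to the highest concentration if not reached. The concentration for full growth arrest is given as TGI.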

Legend:
Assay in all cases: DTP human tumour cell line panel, 48 h
NCI-H522 lung = tested on: NCI-H522 lung
T-47D breast = tested on: T-47D breast
HCC-2998 colon = tested on: HCC-2998 colon
IGROV1 ovarian = tested on: IGROV1 ovarian
SF-268 CNS = tested on: SF-268 CNS
NCI-H460 lung = tested on: NCI-H460 lung
UACC-257 melanoma = tested on: UACC-257 melanoma
MDA-N = tested on: MDA-N
ACHN renal = tested on: ACHN renal
MOLT-4 leukemia = tested on: MOLT-4 leukemia
PC-3 prostate = tested on: PC-3 prostate
SK-MEL-28 melanoma = tested on: SK-MEL-28 melanoma
K-562 leukemia = tested on: K-562 leukemia
LOX IMVI melanoma = tested on: LOX IMVI melanoma
SK-OV-3 ovarian = tested on: SK-OV-3 ovarian
COLO 205 colon = tested on: COLO 205 colon
M14 melanoma = tested on: M14 melanoma
BT-549 breast = tested on: BT-549 breast
MDA-MB-231 breast = tested on: MDA-MB-231 breast
OVCAR-5 ovarian = tested on: OVCAR-5 ovarian
SF-295 CNS = tested on: SF-295 CNS
SK-MEL-5 melanoma = tested on: SK-MEL-5 melanoma
RXF 393 renal = tested on: RXF 393 renal
OVCAR-3 ovarian = tested on: OVCAR-3 ovarian
KM12 colon = tested on: KM12 colon
CCRF-CEM leukemia = tested on: CCRF-CEM leukemia
SW-620 colon = tested on: SW-620 colon
SK-MEL-2 melanoma = tested on: SK-MEL-2 melanoma
NCI-H23 lung = tested on: NCI-H23 lung
A549 NSCLC = tested on: A549 NSCLC
HCT-15 colon = tested on: HCT-15 colon
NCI-H226 lung = tested on: NCI-H226 lung
SNB-75 CNS = tested on: SNB-75 CNS
EKVX NSCLC = tested on: EKVX NSCLC
UACC-62 melanoma = tested on: UACC-62 melanoma
RPMI-8226 leukemia = tested on: RPMI-8226 leukemia
U251 CNS = tested on: U251 CNS
DU-145 prostate = tested on: DU-145 prostate
HOP-62 NSCLC = tested on: HOP-62 NSCLC
NCI/ADR-RES ovarian = tested on: NCI/ADR-RES ovarian
HCT-116 colon = tested on: HCT-116 colon
UO-31 renal = tested on: UO-31 renal
CAKI-1 renal = tested on: CAKI-1 renal
OVCAR-4 ovarian = tested on: OVCAR-4 ovarian
HT29 colon = tested on: HT29 colon
SR leukemia = tested on: SR leukemia
MDA-MB-435 = tested on: MDA-MB-435
SF-539 CNS = tested on: SF-539 CNS
786-0 renal = tested on: 786-0 renal
SNB-19 CNS = tested on: SNB-19 CNS
SN12C renal = tested on: SN12C renal
HOP-92 NSCLC = tested on: HOP-92 NSCLC
A498 renal = tested on: A498 renal
MALME-3M melanoma = tested on: MALME-3M melanoma
OVCAR-8 ovarian = tested on: OVCAR-8 ovarian
TK-10 renal = tested on: TK-10 renal
MCF7 breast = tested on: MCF7 breast
HL-60(TB) leukemia = tested on: HL-60(TB) leukemia

Measured: TGI

O=C1NCC(NC(=O)C(F)(F)F)c2c(Br)sc(Br)c21 (stereo unspecified)
not listed: HL-60(TB) leukemia
> 100 µM: all other assays above

CC(=O)Oc1cc(C(F)(F)F)ccc1C(=O)OC1(C)OC(=O)c2ccc(C(F)(F)F)cc2O1 (stereo unspecified)
not listed: SK-MEL-5 melanoma | SK-MEL-2 melanoma | RPMI-8226 leukemia | SR leukemia
> 100 µM: all other assays above
